The text below walks through data of publication PMC9941179, “Preparation and activity evaluation of angiotensin-I converting enzyme inhibitory peptides from protein hydrolysate of mulberry leaf” (Frontiers in Nutrition, 2023).

For experiment [1], the target named is T1, ACE (Homo sapiens, UniProt P12821).
T1 construct: purchased Tong Ren Chemical Co., Ltd. (Institute of Tongren Chemistry, Japan) ACE Kit-WST
The experiment can be described thus: ACE inhibitory activity of synthetic peptides. The class given is biochemical. The procedure: The ACE inhibitory activity was determined by ACE Kit-WST (Institute of Tongren Chemistry, Japan). Taking ultra-pure water as blank control, the inhibitory activity of ACE was calculated.
Pinhibitoryrate%=ABlack1-ASample/ABlack1-ABlack2×100%
Each experimental procedure was performed three times, and data were expressed as the mean ± standard deviation. Statistical analyses were conducted by one-way analysis of variance using IBM SPSS 20 (SPSS Inc., Chicago, USA). Duncan’s test was applied to determine the significance of multiple groups. The P-value <0.05 was considered statistically significant.
All the peptides were commercially synthesized and their ACE activity was determined (Figure 8).

Experiment [2] has as its system ACE. The following applies: 0.05 mg/L; peptide from broccoli; ref Zhang et al. ([21]); cited from earlier work. The source says: It is of high research value to develop efficient antihypertensive products around botanical angiotensin- I converting enzyme (ACE) inhibitory peptides ([11]). Hypertension is a standard chronic disease and the most critical risk factor for cardio-cerebrovascular disease ([12]). The pathogenesis of hypertension is associated with the renin tensin system (Renin-Angiotensin System, RAS) ([13], [14]). RAS contains two key enzymes: hypertension proteinase (Renin) and ACE ([15]). Therefore, inhibiting the enzyme activity of Renin and ACE is one of the treatments for hypertension ([16], [17]). ACE b ...

Setting [3] is: synthetic peptide, IC50 used as inhibitor concentration in kinetics, read-out: IC50 (peptide concentration in Table 7) (converted).

Like-named read-outs stand apart in the source and are kept apart here. Where no end group is shown, it is not given here.

T1 sequence (P12821 30-1306, species assumed): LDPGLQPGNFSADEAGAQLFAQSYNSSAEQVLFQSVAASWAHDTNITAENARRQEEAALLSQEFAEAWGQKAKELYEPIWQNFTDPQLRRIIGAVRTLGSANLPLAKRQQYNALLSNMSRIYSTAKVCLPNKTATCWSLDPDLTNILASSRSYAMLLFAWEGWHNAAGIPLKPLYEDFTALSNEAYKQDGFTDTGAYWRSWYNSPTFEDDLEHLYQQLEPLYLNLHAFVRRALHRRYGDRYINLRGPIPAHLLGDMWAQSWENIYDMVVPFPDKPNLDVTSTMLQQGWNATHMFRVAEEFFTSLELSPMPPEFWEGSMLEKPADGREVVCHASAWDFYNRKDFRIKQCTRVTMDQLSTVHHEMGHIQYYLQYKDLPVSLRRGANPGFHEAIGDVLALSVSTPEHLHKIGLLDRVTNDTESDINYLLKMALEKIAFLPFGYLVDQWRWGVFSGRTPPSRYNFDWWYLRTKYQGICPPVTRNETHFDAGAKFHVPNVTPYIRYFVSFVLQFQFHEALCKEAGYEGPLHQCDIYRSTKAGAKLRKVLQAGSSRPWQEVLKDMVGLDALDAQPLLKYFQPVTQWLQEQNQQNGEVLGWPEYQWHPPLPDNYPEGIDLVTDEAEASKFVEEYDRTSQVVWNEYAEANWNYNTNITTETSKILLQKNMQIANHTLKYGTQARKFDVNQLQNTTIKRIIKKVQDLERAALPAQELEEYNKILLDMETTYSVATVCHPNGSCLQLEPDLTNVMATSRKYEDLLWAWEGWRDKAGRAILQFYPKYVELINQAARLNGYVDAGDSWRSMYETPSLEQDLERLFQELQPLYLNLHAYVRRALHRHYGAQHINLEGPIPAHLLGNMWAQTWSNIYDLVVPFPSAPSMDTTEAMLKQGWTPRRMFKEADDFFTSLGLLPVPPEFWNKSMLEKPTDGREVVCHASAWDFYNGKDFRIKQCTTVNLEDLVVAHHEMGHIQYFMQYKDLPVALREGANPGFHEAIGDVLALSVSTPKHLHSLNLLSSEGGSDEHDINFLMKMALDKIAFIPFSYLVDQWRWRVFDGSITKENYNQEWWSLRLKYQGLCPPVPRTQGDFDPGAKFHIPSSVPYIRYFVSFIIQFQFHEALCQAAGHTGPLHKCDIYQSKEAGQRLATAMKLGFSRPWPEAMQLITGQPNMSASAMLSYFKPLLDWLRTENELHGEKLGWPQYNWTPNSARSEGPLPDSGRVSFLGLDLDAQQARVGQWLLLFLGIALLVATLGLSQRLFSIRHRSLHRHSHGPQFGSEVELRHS

As to ERFNVE [ERFNVE], the IC50 at ACE [1] (setting [3]) is 3340 µM.

Turning to FDDKLD [FDDKLD], the IC50 on ACE [1] (setting [3]) is 931 µM.

As to “Lys - Ser - Val - Leu - Leu - Lys - Phe [peptide from broccoli digest, literature]”, the ACE inhibition rate in the experiment on ACE [2] was 42.86%.

As for MELVLK [MELVLK], the IC50 at ACE [1] (chemosynthetic peptide, purity greater than 95%, read-out: IC50 (converted)) is 2600 µM.

Regarding TELVLK [TELVLK], on ACE [1] (setting [3]), the IC50 is 1400 µM.
